Where two headings read alike, the source gives them in different places. Blank lines part the entries; values can stand above or below the compound they belong to.
Assays:
DLD-1 BRCA2−/− cells = experiment: Homologous recombination synthetic lethal inhibition of proliferation, DLD-1 BRCA2-/- (Cell Titre Glo 3D); assay type: cell-based; conditions: for IC50: Homo sapiens
How it was run: (§1)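 Luminescent Cell Titre Glo 3D readout, taken on day 12 for homologous-recombination-deficient DLD-1 BRCA2−/− and day 7 for the wild-type control, after compound refresh on day 6. Compounds spanned 10 μM to 0.51 nM in three-fold steps; IC50 defined as 50% reduction of average maximum signal.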

DLD-1 cells = experiment: Inhibition of proliferation, DLD-1 BRCA2 wt control (Cell Titre Glo 3D); assay type: cell-based; conditions: for IC50: Homo sapiens
How it was run: as §1

[1] = DLD-1, 288 h, DLD-1 BRCA2−/− cells, 12 days, read-out: POLQ PD Prolif Lumin BRCA2 −/− mean pIC50 (converted)
[2] = DLD-1, 168 h, DLD-1 BRCA2 wt cells, 7 days, read-out: POLQ PD Prolif Lumin DLD1 mean pIC50 (converted)
[3] = DLD-1, first proliferation column (c5), DLD-1 BRCA2-/-, read-out: POLQ PD Prolif Lumin (converted)
[4] = DLD-1, second proliferation column (c6), DLD-1 BRCA2 wt control, read-out: POLQ PD Prolif Lumin (converted)
[5] = DLD-1, DLD-1 BRCA2 −/− cells, mean, read-out: POLQ PD Prolif Lumin BRCA2 −/− mean pIC50 (converted)
[6] = DLD-1, DLD1 BRCA2 wt cells, mean, read-out: POLQ PD Prolif Lumin DLD1 mean PIC50 (converted)
[7] = DLD-1, first proliferation column (c5), taken as DLD-1 BRCA2-/-, read-out: POLQ PD Prolif Lumin (converted)
[8] = DLD-1, second proliferation column (c6), taken as DLD-1 BRCA2 wt, read-out: POLQ PD Prolif Lumin (converted)
[9] = DLD-1, 288 h, DLD-1 BRCA2−/−, 12 days, Cell Titre Glo 3D, read-out: POLQ PD Prolif Lumin BRCA2 −/− Mean pIC50 (converted)
[10] = DLD-1, 168 h, DLD-1 (BRCA2 wt control), 7 days, Cell Titre Glo 3D, read-out: POLQ PD Prolif Lumin DLD1 Mean pIC50 (converted)

IC50 (DLD-1 cells; [4]): > 10000 nM
Compound: Cc1cc(Cl)nc(Cn2c(-c3ccc(OCCN4CCNCC4)cc3Cl)nc3c(OC4(C)CC4)ncnc32)c1 [Example T524, 8-(2-chloro-4-(2-(piperazin-1-yl)ethoxy)phenyl)-9-((6-chloro-4-methylpyridin-2-yl)methyl)-6-(1-methylcyclopropoxy)-9H-purine]
IC50 (DLD-1 BRCA2−/− cells; [3]): 501 nM

IC50 (DLD-1 cells; [6]): 5010 nM
Compound: CC1(Oc2ncnc3c2nc(-c2ccc(OC4CNC4)cc2Cl)n3Cc2cc(Cl)ccn2)CC1 [Example T50, 8-(4-(azetidin-3-yloxy)-2-chlorophenyl)-9-((4-chloropyridin-2-yl)methyl)-6-(1-methylcyclopropoxy)-9H-purine]
IC50 (DLD-1 BRCA2−/− cells; [5]): 251 nM

POLQ PD Prolif Lumin DLD1 mean pIC50 (DLD-1 cells; DLD1 BRCA2 wt, mean): <5.0
Compound: CC1(Oc2ncnc3c2nc(-c2cccc(O[C@H]4C[C@@H](C(=O)O)C4)c2Cl)n3Cc2cc(Cl)ccc2C#N)CC1 [Example U84, (1s,3s)-3-(2-chloro-3-(9-(5-chloro-2-cyanobenzyl)-6-(1-methylcyclopropoxy)-9H-purin-8-yl)phenoxy)cyclobutane-1-carboxylic acid]
POLQ PD Prolif Lumin BRCA2 −/− mean pIC50 (DLD-1 BRCA2−/− cells; DLD-1 BRCA2 −/−, mean): 7.3

IC50 (DLD-1 cells; [8]): > 10000 nM
Compound: Cc1ccnc(Cn2c(-c3ccc(CN4CC[C@@H](O)C4)cc3Cl)nc3c(OC4(C)CC4)ncnc32)c1 [Example T353, (R)-1-(3-chloro-4-(6-(1-methylcyclopropoxy)-9-((4-methylpyridin-2-yl)methyl)-9H-purin-8-yl)benzyl)pyrrolidin-3-ol]
IC50 (DLD-1 BRCA2−/− cells; [7]): 316 nM

IC50 (DLD-1 cells; [6]): > 10000 nM
Compound: CC1(Oc2ncnc3c2nc(-c2ccc(OCCO)cc2Cl)n3Cc2cc(Cl)ccn2)CC1 [Example T15, 2-(3-chloro-4-(9-((4-chloropyridin-2-yl)methyl)-6-(1-methylcyclopropoxy)-9H-purin-8-yl)phenoxy)ethan-1-ol]
IC50 (DLD-1 BRCA2−/− cells; [5]): 100 nM

IC50 (DLD-1 cells; DLD-1, DLD1 BRCA2 wt, mean, read-out: POLQ PD Prolif Lumin DLD1 mean pIC50 (converted)): > 10000 nM
Compound: COc1ccc(F)cc1Cn1c(-c2ccc(OCC[C@@H](C)C(=O)O)cc2Cl)nc2c(OC3(C)CC3)ncnc21 [Example U67, (R)-4-(3-chloro-4-(9-(5-fluoro-2-methoxybenzyl)-6-(1-methylcyclopropoxy)-9H-purin-8-yl)phenoxy)-2-methylbutanoic acid]
IC50 (DLD-1 BRCA2−/− cells; DLD-1, DLD-1 BRCA2 −/−, mean, read-out: POLQ PD Prolif Lumin BRCA2 −/− mean pIC50 (converted)): 50.1 nM

IC50 (DLD-1 cells; [8]): > 10000 nM
Compound: Cc1ccnc(Cn2c(-c3ccc(OC4CCS(=O)(=O)CC4)cc3Cl)nc3c(OC4(C)CC4)ncnc32)c1 [Example T335, 4-(3-chloro-4-(6-(1-methylcyclopropoxy)-9-((4-methylpyridin-2-yl)methyl)-9H-purin-8-yl)phenoxy)tetrahydro-2H-thiopyran 1,1-dioxide]
IC50 (DLD-1 BRCA2−/− cells; [7]): 251 nM

IC50 (DLD-1 cells; [4]): > 3160 nM
Compound: CC(CCOc1ccc(-c2nc3c(OC4(C)CC4)ncnc3n2Cc2cc(C(F)(F)F)cc(C(F)(F)F)c2)c(Cl)c1)C(=O)O (racemic) [Example T533, 4-(4-(9-(3,5-bis(trifluoromethyl)benzyl)-6-(1-methylcyclopropoxy)-9H-purin-8-yl)-3-chlorophenoxy)-2-methylbutanoic acid]
IC50 (DLD-1 BRCA2−/− cells; [3]): 398 nM

Continued, compound first:

Compound: CN(C)C(=O)c1ccc(-c2nc3c(OC4(C)CC4)ncnc3n2Cc2ccccc2)c(Cl)c1 [Example N1, 4-(9-benzyl-6-(1-methylcyclopropoxy)-9H-purin-8-yl)-3-chloro-N,N-dimethylbenzamide]
IC50 (DLD-1 BRCA2−/− cells; [1]): 200 nM
IC50 (DLD-1 cells; [2]): > 10000 nM

Compound: CN1CCN(CCOc2ccc(-c3nc4c(OC5(C)CC5)ncnc4n3Cc3ccccn3)c(Cl)c2)CC1 [Example E5, 8-(2-chloro-4-(2-(4-methylpiperazin-1-yl)ethoxy)phenyl)-6-(1-methylcyclopropoxy)-9-(pyridin-2-ylmethyl)-9H-purine]
IC50 (DLD-1 BRCA2−/− cells; [1]): 501 nM
IC50 (DLD-1 cells; [2]): 7940 nM

Compound: Clc1cc(OCCN2CCNCC2)ccc1-c1nc2c(OC3CCC3)ncnc2n1Cc1ccccc1 [Example T506, 9-benzyl-8-(2-chloro-4-(2-(piperazin-1-yl)ethoxy)phenyl)-6-cyclobutoxy-9H-purine]
IC50 (DLD-1 BRCA2−/− cells; [3]): 501 nM
IC50 (DLD-1 cells; [4]): 2000 nM

Compound: CN1CCCC1CCOc1ccc(-c2nc3c(OC4(C)CC4)ncnc3n2Cc2ccccc2)c(Cl)c1 (single isomer, unassigned) [Example D3, 9-benzyl-8-(2-chloro-4-(2-(1-methylpyrrolidin-2-yl)ethoxy)phenyl)-6-(1-methylcyclopropoxy)-9H-purine]
IC50 (DLD-1 BRCA2−/− cells; [1]): 63.1 nM
POLQ PD Prolif Lumin DLD1 mean pIC50 (DLD-1 cells; DLD-1 BRCA2 wt cells, 7 days): 5.7

Compound: CN(C)[C@@H]1CCN(c2ccc(-c3nc4c(OC5(C)CC5)ncnc4n3Cc3ccccc3)c(Cl)c2)C1 [Example C4, (R)-1-(4-(9-benzyl-6-(1-methylcyclopropoxy)-9H-purin-8-yl)-3-chlorophenyl)-N,N-dimethylpyrrolidin-3-amine]
IC50 (DLD-1 BRCA2−/− cells; [1]): 200 nM
IC50 (DLD-1 cells; [2]): 2510 nM

Compound: CC1(Oc2ncnc3c2nc(-c2ccc(OCCN4CC(O)C4)cc2Cl)n3Cc2ccccc2)CC1 [Example H14, 1-(2-(4-(9-benzyl-6-(1-methylcyclopropoxy)-9H-purin-8-yl)-3-chlorophenoxy)ethyl)azetidin-3-ol]
IC50 (DLD-1 BRCA2−/− cells; [1]): 126 nM
IC50 (DLD-1 cells; [2]): 6310 nM

Compound: CC(=O)N1CCC(COc2ccc(-c3nc4c(OC5(C)CC5)ncnc4n3Cc3ccccc3)c(Cl)c2)CC1 [Example D1, 1-(4-((4-(9-benzyl-6-(1-methylcyclopropoxy)-9H-purin-8-yl)-3-chlorophenoxy)methyl)piperidin-1-yl)ethan-1-one]
IC50 (DLD-1 BRCA2−/− cells; [1]): 79.4 nM
IC50 (DLD-1 cells; [2]): 6310 nM

Compound: CC1(Oc2ncnc3c2nc(-c2ccc(OCCN4CC5(CCN5)C4)cc2Cl)n3Cc2ccccc2)CC1 [Example H18, 8-(4-(2-(1,6-diazaspiro[3.3]heptan-6-yl)ethoxy)-2-chlorophenyl)-9-benzyl-6-(1-methylcyclopropoxy)-9H-purine]
IC50 (DLD-1 BRCA2−/− cells; [1]): 316 nM
IC50 (DLD-1 cells; [2]): 3160 nM

Compound: CC1(Oc2ncnc3c2nc(-c2ccc(OCCCN4CC(O)C4)cc2Cl)n3Cc2ccccc2)CC1 [Example H17, 1-(3-(4-(9-benzyl-6-(1-methylcyclopropoxy)-9H-purin-8-yl)-3-chlorophenoxy)propyl)azetidin-3-ol]
IC50 (DLD-1 BRCA2−/− cells; [1]): 63.1 nM
IC50 (DLD-1 cells; [2]): 2000 nM

Compound: CC1(Oc2ncnc3c2nc(-c2ccc(OCCN4CCNCC4)cc2Cl)n3Cc2nccs2)CC1 [Example K4, 2-((8-(2-chloro-4-(2-(piperazin-1-yl)ethoxy)phenyl)-6-(1-methylcyclopropoxy)-9H-purin-9-yl)methyl)thiazole]
IC50 (DLD-1 BRCA2−/− cells; [1]): 3980 nM
IC50 (DLD-1 cells; [2]): > 10000 nM

Compound: CC1(Oc2ncnc3c2nc(-c2ccc(OCC(C)(C)C(=O)O)cc2Cl)n3Cc2cccc(Cl)c2)CC1 [Example 32, 3-(3-Chloro-4-(9-(3-chlorobenzyl)-6-(1-methylcyclopropoxy)-9H-purin-8-yl)phenoxy)-2,2-dimethylpropanoic acid]
IC50 (DLD-1 BRCA2−/− cells; [9]): 631 nM
IC50 (DLD-1 cells; [10]): > 10000 nM

Compound: CC1(Oc2ncnc3c2nc(-c2ccc(OCCN4CCNCC45CC5)cc2Cl)n3Cc2ccccc2)CC1 [Example R22, 8-(4-(2-(4,7-diazaspiro[2.5]octan-4-yl)ethoxy)-2-chlorophenyl)-9-benzyl-6-(1-methylcyclopropoxy)-9H-purine]
IC50 (DLD-1 BRCA2−/− cells; [1]): 251 nM
IC50 (DLD-1 cells; [2]): 3160 nM

Compound: COc1ccc(Cl)cc1Cn1c(-c2cccc(OCCC(=O)O)c2Cl)nc2c(OC3(C)CC3)ncnc21 [Example 49, 3-(2-Chloro-3-(9-(5-chloro-2-methoxybenzyl)-6-(1-methylcyclopropoxy)-9H-purin-8-yl)phenoxy)propanoic acid]
IC50 (DLD-1 BRCA2−/− cells; [9]): 15.8 nM
IC50 (DLD-1 cells; [10]): > 10000 nM

Compound: CC1(Oc2ncnc3c2nc(-c2ccc(CC(N)=O)cc2Cl)n3Cc2cc(Cl)ccn2)CC1 [Example 38, 2-(3-Chloro-4-(9-((4-chloropyridin-2-yl)methyl)-6-(1-methylcyclopropoxy)-9H-purin-8-yl)phenyl)acetamide]
IC50 (DLD-1 BRCA2−/− cells; [9]): 398 nM
IC50 (DLD-1 cells; [10]): > 10000 nM

— US20250195530A1, “POLQ INHIBITORS” (ASTRAZENECA AB, priority 2022, published 2025)
